The values that follow come from patent publication US20110053835A1, “ANTIMICROBIAL PEPTIDES DERIVED FROM CAP18” (OctoPlus Sciences B.V., priority 2004, published 2011).

Data set [1] concerns rats. Description: Single and repeated dose intravenous systemic toxicity study. Format: in vivo, rat. The protocol: The systemic toxicity of P60.4Ac was assessed in a single and repeated dose toxicity study in rats. The peptide was administered daily intravenously in escalating doses. In this phase, the Maximum Tolerated Dose (MTD) was established. Repeated dose toxicity was also studied in the MTD phase. In the dose escalation phase, 9 rate were divided in three groups and received 0.4, 2 or 8 mg/kg/day for two days. Clinical signs were recorded twice daily on days of dosing and one day after dosing, body weights were recorded prior to the first dose and one day after dosing. In the MTD phase, 5 female and 5 male rats received 8 mg/kg/day for 5 following days. Clinical signs were recorded twice daily on days of dosing, body weight on day 1 and 6. Clinical laboratory investigations were performed prior to necropsy. Macroscopy was performed at termination of the MTD phase.

Data set [2] has as its system guinea pigs. Format: in vivo, guinea pig. How it is done:
The skin was sutured closed and follow-up auditory testing was performed.
Auditory brainstem response (ABR) was performed prior to drug administration and directly after surgery and 3, 7, 14 and 22 days later, using a computer-based signal averaging system (Tucker-Davis Technology, Alucha, Fla., USA). Guinea pigs were anesthetized and an insert earphone was placed into the external ear canal. […] Ground electrodes were placed over the neck muscles. […] Stimulus intensities were measured and expressed as dB.

In data set [3] the test system is Aspergillus niger ATCC 14406. The protocol:
(§1) The in vitro antibacterial and antifungal activity of P60.4-Ac and LL-37 were determined as the minimum inhibitory concentrations (MIC) by a microdilution susceptibility test in 96-well microtiter plates, according to a modified version of R. Hancock's “Modified MIC method for cationic antimicrobial peptides” [13]. The antibacterial activity was tested on the reference strains Escherichia coli ATCC 8739, Pseudmonas aeruginosa ATCC 9027. The antifungal activity was evaluated on Candida albicans ATCC 10231 and Aspergillus niger ATCC 14406. The antimicrobial activity assay was conducted with different concentrations of P60.4Ac and LL-37 to compare their effects on the bacterial or fungal growth. Antibacterial activity was examined using log-phase cultured bacteria in Trypticase Soy Broth at 37° C. The cultures were diluted with 10 mM Sodium Phosphate buffer pH 7.4 to give approximately 5.0×10^6 CFU/ml. 10 μl of the diluted test strain was transferred to a 96-well plate and 100 μl of the different peptide concentrations was added to each well. The plates were incubated at 37° C. for 24 hours and are then scored for growth by visual inspection on a light box. They are then returned for incubation for a further 24 hours after which time they are re-evaluated for growth. The yeast strain C. albicans was prepared as described above. The filamentous fungi A. niger was used as a spore suspension, cultured on Sabourauds Dextrose Agar plates at 20-25° C. for 6-10 days or until adequate sporulation has occurred. The spores were harvested by scrapping and if necessary the concentration was adjusted to a final concentration of 5×10^6 CFU/ml.

In data set [4] the test system is Candida albicans ATCC 10231. How it is done: as §1
Data set [5] relates to Escherichia coli ATCC 8739. Particulars: mean of three determinations. The protocol:
as §1

For data set [6], the system named is P. aeruginosa ATCC9027. How it is done: as §1
Data set [7] deals with rabbits. The settings on record: 0.5 ml peptide solution 2 mg/ml on clipped skin for 4 hours, semi-occlusive; observed 1-72 hours.
Procedure: (§2) For the skin and eye irritation tests, three rabbits were exposed to 0.5 ml phosphate buffered peptide solution (2 mg/ml), applied onto clipped skin for 4 hours using a semi-occlusive dressing. Observations were made 1, 24, 48, and 72 hours after exposure. Single samples of 0.1 ml of phosphate buffered (pH7.5) peptide solution (2 mg/ml) were instilled into one eye of each of three rabbits to perform an acute eye irritation/corrosion study. Observations were made 1, 24, 48, and 72 hours after instillation.
Data set [8] concerns rabbits.
Procedure: as §2
Where [9] appears, read: intravenous, 8 mg/kg/day for 5 days.
[10] abbreviates: intravenous, 0.4, 2 or 8 mg/kg/day for two days.

Like-named read-outs stand apart in the source and are kept apart here. Marks after values point to notes of the source that are not given here.

With “Ac-IGKEFKRIVERIKRFLRELVRPLR-NH2 [Compound P60.4Ac]”, in data set [1] (setting [9]), the “clinical signs, body weight, hematology, clinical biochemistry and macroscopic examination, MTD phase” value was “no clear peptide related findings”. Also, the “mortality, MTD phase” value in data set [1] (setting [9]) is on record as “no mortality occurred”. The “clinical signs and body weight, dose escalation phase” value in data set [1] (setting [10]) is “no clear deviations”. The “mortality, dose escalation phase” value in data set [1] (setting [10]) is on record as “no mortality occurred”. In addition, the ABR threshold change is on record as −7 dB in data set [2] (P60.4-Ac 2 mg/ml in PBS, 22 days after surgery) and 1 dB in data set [2] (P60.4-Ac as formulation II, both animals, 22 days). In addition, the MIC (usually the lowest concentration that inhibits growth of the organism) in data set [3] (A. niger ATCC14406, incubation 24 h) was 18 µM; in data set [3] (A. niger ATCC14406, incubation 48 h), >18^e μM; in data set [4] (C. albicans ATCC10231, incubation 24 h), 6 µM; in data set [4] (C. albicans ATCC10231, incubation 48 h) it was 6^f μM; in data set [5] (E. coli ATCC8739, incubation 24 h) it was 2 µM; in data set [5] (E. coli ATCC8739, incubation 48 h), 3^c μM. Further, the MIC was 3 µM in data set [6] (P. aeruginosa ATCC9027, incubation 24 h) and 6^b μM in data set [6] (P. aeruginosa ATCC9027, incubation 48 h). Further, the skin irritation result in data set [7] is given as “no skin irritation was detectable”. Besides, the “time to complete resolution of conjunctival redness after instillation” value in data set [8] (0.1 ml peptide solution 2 mg/ml into one eye) is no more than 24 h. Besides, the “eye irritation finding after ophthalmic instillation” value in data set [8] (0.1 ml phosphate buffered (pH7.5) peptide solution 2 mg/ml into one eye) was “redness of the conjunctivae”.
